Results on six molecules are retold here after patent US6040309A, “Benzothiophene derivatives useful in therapy” (Pfizer, Inc., priority 1997, dated 2000).

One assay relates to neointimal formation. Particulars: cited from earlier work.
The target in the next assay is rabbit ETA receptor. Particulars: cited from earlier work.
A further assay has as its target human ETA receptor. Particulars: cited from earlier work.
A further assay addresses T1, ETA receptor (Rattus norvegicus, UniProt P26684).
T1 construct: Rat aortae are cleaned of connective tissue and fat and cut into helical strips; from tissue; host or cells: rat aorta, helical strips, endothelium removed
T1 sequence (P26684 21-426): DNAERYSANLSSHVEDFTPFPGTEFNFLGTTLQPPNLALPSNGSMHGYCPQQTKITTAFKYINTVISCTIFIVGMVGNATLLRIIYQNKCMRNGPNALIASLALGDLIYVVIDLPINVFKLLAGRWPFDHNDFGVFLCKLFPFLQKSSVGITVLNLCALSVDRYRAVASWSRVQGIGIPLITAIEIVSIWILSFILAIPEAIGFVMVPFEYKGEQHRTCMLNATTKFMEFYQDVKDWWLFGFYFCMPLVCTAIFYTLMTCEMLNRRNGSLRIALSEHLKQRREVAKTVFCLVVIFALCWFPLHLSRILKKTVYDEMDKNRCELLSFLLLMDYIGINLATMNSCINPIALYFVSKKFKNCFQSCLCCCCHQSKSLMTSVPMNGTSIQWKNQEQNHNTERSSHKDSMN
Description: In Vitro Vascular Smooth Muscle Activity, Rat Aorta (ET-1 contraction; Test B). The class given is cell-based. Particulars: read-out: pA2 (converted). From the text: B. In Vitro Vascular Smooth Muscle Activity
Rat aortae are cleaned of connective tissue and fat and cut into helical strips approx 4 mm in width. The endothelium is removed by dragging the luminal surface of the tissue gently across filter paper moistened with Krebs solution of composition (mM) NaCl 130, KCl 5.6, NaHCO3 25, Glucose 11.1, NaH2 PO4 0.6, CaCl2 2.16, MgCl2 0.5, gassed with 95% O2 /5% CO2. The strips are mounted in isolated organ baths in Krebs solution under a resting tension of 1 gram. Organ bath solutions are maintained at 37° C. and continuously aerated with 95% O2 /5% CO2. […] After equilibration in the organ bath for 1 hour, tissues are contracted by the addition of KCl to a final concentration of 60 mM. The KCl is removed by replacing the Krebs solution, with two further washes with Krebs solution. To determine the potency of an ETA receptor antagonist, two tissues are cumulatively dosed with ET-1 (0.1 nM-1 μM); other tissues are dosed with ET-1 (0.1 nM-1 μM) in duplicate, beginning 30 minutes after the inclusion in the organ bath medium of the test compound. Sufficient tissues are used per experiment to generate dose-response curves to ET-1 in the absence and the presence of at least 3 concentrations of antagonist. Data are expressed as the mean±s.e.m. Dissociation constants (kb) of competitive antagonists are calculated by the method of Arunlakshana and Schild.

Bridges are numbered along the chain shown (N, C = ends). Where no end group is shown, it is not given here.

Regarding `CCCOc1ccc2c(c1)[C@@H](c1ccc(OC)cc1OCC(=O)O)[C@H](C(=O)O)[C@H]2c1ccc2c(c1)OCO2` [SB-209670], in the assay with neointimal formation (relative to control animals), the “reduction in neointimal formation” value was 50%. What is called IC50 is the concentration at which inhibition is half-maximal. On to `COc1cccc(Sc2c(C(=O)O)sc3ccccc23)c1` [3-[(3-methoxyphenyl)sulfanyl]benzo[b]thiophene-2-carboxylic acid], for which, on rabbit ETA receptor, the half-inhibitory concentration (IC50) is 5.9 µM. In the case of `CC(C)Oc1c(C(=O)O)sc2ccc(OCc3ccccc3)cc12` [5-benzyloxy-3-isopropoxybenzo[b]thiophene-2-carboxylic acid], the figures for the concentration for half-maximal inhibition (IC50) on rabbit ETA receptor and at human ETA receptor were 6 µM and 8.8 µM, respectively. Consider “ET-1: isoform of endothelin, 21-amino acid peptide, potent vasoconstrictor (CSCSSLMDKECVYFCHLDIIW; disulfide 1-15, 3-11; ends not checked; UniProt P05305 53-73, looked up)”, for which the “effect on neointimal formation” value with neointimal formation (in rats after balloon angioplasty) is “potentiate neointimal formation”. Consider `O=C(O)c1sc2cc(OCc3cccnc3)ccc2c1Sc1ccccc1O` [Example 56], for which the Kb on ETA receptor was 0.0148 µM. Still for that read-out and setting: with `O=C(O)c1sc2cc(Cn3ccnc3)ccc2c1Sc1ccccc1O` [Example 71] the figure was 0.229 µM.
